According to ChEMBL document CHEMBL3714750, “Aryl sulfonamides” (2008):

Target: T1, C-C chemokine receptor type 9 (Homo sapiens, UniProt P51686)
T1 sequence (P51686 whole entry): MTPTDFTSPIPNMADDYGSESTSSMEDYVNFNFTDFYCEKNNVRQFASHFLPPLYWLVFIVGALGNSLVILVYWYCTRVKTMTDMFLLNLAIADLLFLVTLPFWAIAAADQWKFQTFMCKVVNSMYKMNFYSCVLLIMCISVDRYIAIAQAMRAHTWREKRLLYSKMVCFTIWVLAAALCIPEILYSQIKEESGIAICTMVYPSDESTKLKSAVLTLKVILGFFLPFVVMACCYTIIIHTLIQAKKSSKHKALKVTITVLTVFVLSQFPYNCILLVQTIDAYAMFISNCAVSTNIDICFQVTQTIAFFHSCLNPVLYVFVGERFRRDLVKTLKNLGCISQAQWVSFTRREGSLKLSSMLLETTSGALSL
Assay: Antagonist activity against CCR9 in human MOLT4 cells assessed as inhibition of human recombinant TECK-induced calcium response pre-treated before TECK stimulation by Flou-4-AM dye based FLIPR assay
Assay type: functional, cell-based, MOLT-4

| SMILES | IC50 [nM] |
| --- | --- |
| Cc1noc(C)c1-c1ccc(S(=O)(=O)Nc2ccc(Cl)cc2C(=O)c2ccncc2)cc1 | < 1000 |
| Cc1ccncc1C(=O)c1cc(Cl)ccc1NS(=O)(=O)c1ccc(-c2cnco2)cc1 | < 1000 |
| Cn1nc(C(=O)c2cc(Cl)ccc2NS(=O)(=O)c2ccc(C(C)(C)C)cc2)c2ccccc21 | > 1000 |
| COc1ccc(S(=O)(=O)Nc2ccc(Cl)cc2C(=O)N2CCCCC2)cc1 | > 1000 |
| O=C(c1ccncc1)c1cc(Cl)ccc1NS(=O)(=O)c1ccc(-c2ccco2)cc1 | < 1000 |
| O=C(c1ccncc1)c1cc(Cl)ccc1NS(=O)(=O)c1ccc(-c2ccccc2)cc1 | < 1000 |
| O=C(c1ccncc1)c1cc(Cl)ccc1NS(=O)(=O)c1ccc(N2CCNCC2)cc1 | > 1000 |
| CC(C)(c1ncco1)c1ccccc1S(=O)(=O)Nc1ccc(Cl)cc1C(=O)c1ccncc1 | < 1000 |
| CC(C)(c1ccc(S(=O)(=O)Nc2ccc(Cl)cc2C(=O)c2cccnc2)cc1)c1ncco1 | < 1000 |
| Cc1ccc(C(=O)c2cc(Cl)ccc2NS(=O)(=O)c2ccc(C3(C)CCOCC3)cc2)cn1 | < 1000 |
| O=C(c1ccncc1)c1cc(Cl)ccc1NS(=O)(=O)c1ccc(-c2ccsc2)cc1 | < 1000 |
| COc1ccc(S(=O)(=O)Nc2ccc(Cl)cc2C(=O)NCc2ccccc2)cc1 | < 1000 |
| CC(C)(c1ccc(S(=O)(=O)Nc2ccc(Cl)cc2C(=O)c2ccncc2)cc1)c1cnco1 | < 1000 |
| Cc1cccc(C(=O)c2cc(Cl)ccc2NS(=O)(=O)c2ccc(C3(C)CCOCC3)cc2)n1 | < 1000 |
| Cc1nnc(-c2ccc(S(=O)(=O)Nc3ccc(Cl)cc3C(=O)c3cccnc3)cc2)o1 | > 1000 |
| CC(C)(C)c1ccc(S(=O)(=O)Nc2ccc(F)c(F)c2C(=O)c2ccncc2)cc1 | < 1000 |
| O=C(c1ccncc1)c1cc(Cl)ccc1NS(=O)(=O)c1ccc(CCc2ncco2)cc1 | < 1000 |
| CC(C)(c1ccc(S(=O)(=O)Nc2ccc(Cl)cc2C(=O)c2ccncc2)cc1)N1CCCCC1=O | < 1000 |
| Cc1ccc(C(=O)c2cc(Cl)ccc2NS(=O)(=O)c2ccc(OC(C)C)cc2)cn1 | < 1000 |
| CC(C)(C)c1ccc(S(=O)(=O)Nc2ccc(F)cc2C(=O)c2ccncc2)cc1 | < 1000 |
| Cc1cccc(C(=O)c2cc(Cl)ccc2NS(=O)(=O)c2ccc(C(C)(C)C)cc2)n1 | < 1000 |
| CC(C)Sc1ccc(S(=O)(=O)Nc2ccc(Cl)cc2C(=O)c2ccncc2)cc1 | < 1000 |
| O=C(c1ccncc1)c1cc(Cl)ccc1NS(=O)(=O)c1ccc(-c2cccnc2F)cc1 | > 1000 |
| CC1(c2ccc(S(=O)(=O)Nc3ccc(Cl)cc3C(=O)c3cc[n+]([O-])cc3)cc2)OCCO1 | < 1000 |

Further lines, results first:

| IC50 [nM] | SMILES |
| --- | --- |
| < 1000 | CC(C)(c1ccc(S(=O)(=O)Nc2ccc(Cl)cc2C(=O)c2ccncc2)cc1)c1ncco1 |
| > 1000 | O=C(c1ccncn1)c1cc(Cl)ccc1NS(=O)(=O)c1ccc(-c2cnco2)cc1 |
| < 1000 | COC(=O)CCc1ccc(S(=O)(=O)Nc2ccc(Cl)cc2C(=O)c2ccncc2)cc1 |
| < 1000 | Cc1cc(C(=O)c2cc(Cl)ccc2NS(=O)(=O)c2ccc(OC(C)C)cc2)cc[n+]1[O-] |
| < 1000 | O=C(c1ccncc1)c1cc(Cl)ccc1NS(=O)(=O)c1ccc(OC(F)(F)F)cc1 |
| > 1000 | Cn1nnnc1-c1ccc(S(=O)(=O)Nc2ccc(Cl)cc2C(=O)c2ccncc2)cc1 |
| < 1000 | COc1ccc(S(=O)(=O)Nc2ccc(Cl)cc2C(=O)Nc2ccccc2)cc1 |
| < 1000 | Cc1cc(C(=O)c2cc(Cl)ccc2NS(=O)(=O)c2ccc(C(C)(C)C)cc2)cc[n+]1[O-] |
| > 1000 | O=C(c1ccncc1)c1cc(Cl)ccc1NS(=O)(=O)c1ccc(-c2ccc[nH]2)cc1 |
| > 1000 | CC(=O)N1CCN(c2ccc(S(=O)(=O)Nc3ccc(Cl)cc3C(=O)c3ccncc3)cc2)CC1 |
| < 1000 | CC(C)c1ccc(S(=O)(=O)Nc2ccc(Br)cc2C(=O)c2ccncc2)cc1 |
| < 1000 | Cn1nncc1C(=O)c1cc(Cl)ccc1NS(=O)(=O)c1ccc(C(C)(C)C)cc1 |
| < 1000 | Cc1cc(C(=O)c2cc(Cl)ccc2NS(=O)(=O)c2ccc(C3(C)CCOCC3)cc2)ccn1 |
| > 1000 | O=C(c1ccncc1)c1cc(Cl)ccc1NS(=O)(=O)c1ccc(-c2cncnc2)cc1 |
